Assay results: patent US20160102058A1, “FLUORO-PERHEXILINE COMPOUNDS AND THEIR THERAPEUTIC USE” (THE UNIVERSITY COURT OF THE UNIVERSITY OF ABERDEEN, priority 2013, published 2016)

Columns and labels:
[1] = Rat liver microsomal (RLM) stability assay; format: in vitro ADME; settings: both sexes, pH 7.4, rat liver microsomes, 3 μM test compound; for microsomal CLint at 3 μM: read-out: CLint (μL/min/mg protein) RLM; for half-life at 3 μM: read-out: T½ (min) RLM
Protocol: The metabolic stability of fluoroperhexiline derivatives was measured by determination of the rate of compound disappearance when incubated in the presence of both human and rat liver microsomes. Liver microsomes are prepared from the endoplasmic reticulum of hepatocytes and are the primary source of the most important enzymes (cytochrome P450) involved in drug metabolism. Study of drug stability in the presence of liver microsomes is accepted as a valuable model permitting rapid prediction of in vivo drug stability.
Human and rat liver microsomes were obtained from a commercial source. Test compounds (3 μM) were incubated with pooled liver microsomes (male and female). Samples were incubated for a 45 minute period and removed at 5 time points and test compounds were analysed by LC-MS/MS.
Microsomes (final protein concentration 0.5 mg/mL), 0.1 M phosphate buffer pH 7.4, and test compound (final concentration 3 μM; diluted from 10 mM stock solution to give a final DMSO concentration of 0.25%) were incubated at 37° C. prior to the addition of NADPH (final concentration 1 mM) to initiate the reaction. The final incubation volume was 25 μL. A control incubation was included for each compound tested, where 0.1 M phosphate buffer pH 7.4 was added instead of NADPH. The control compounds testosterone and 7-hydroxycoumarin were included in each experiment and all incubations were performed singularly for each compound.
Each compound was incubated for 0, 5, 15, 30, and 45 minutes. The control (minus NADPH) was incubated for 45 minutes only. The reactions were stopped by the addition of 50 μL methanol containing internal standard at the appropriate time points. The incubation plates were centrifuged at 2500 rpm for 20 minutes at 4° C. to precipitate the protein.
Following protein precipitation, the sample supernatants were combined in cassettes of up to 4 compounds and analysed using standard LC-MS/MS conditions.
From a plot of the natural logarithm of the peak area ratio (i.e., the ratio of compound peak area:internal standard peak area) against time, the gradient of the line was determined. Subsequently, half-life and intrinsic clearance were calculated using the equations below:
Eliminated Rate Constant (k)=(−Gradient).
Half-Life (t1/2) (min)=0.063/k.
Intrinsic Clearance (CLint) […]=(V×0.693)/t1/2. • wherein V=Incubation Volume (μL/mg microsomal protein).

[2] = molecular target: T1, CYP2D6 (Homo sapiens, UniProt P10635); assay: Cytochrome P450 2D6 reaction phenotyping (Bactosomes); format: in vitro ADME; settings: for half-life at 5 μM: human, pH 7.4, read-out: T½; for stability towards CYP2D6 compared with perhexiline (in words): versus perhexiline
T1 construct: purchased Cypex Ltd; host or cells: bacterial membranes (Bactosomes)
T1 sequence (P10635 whole entry): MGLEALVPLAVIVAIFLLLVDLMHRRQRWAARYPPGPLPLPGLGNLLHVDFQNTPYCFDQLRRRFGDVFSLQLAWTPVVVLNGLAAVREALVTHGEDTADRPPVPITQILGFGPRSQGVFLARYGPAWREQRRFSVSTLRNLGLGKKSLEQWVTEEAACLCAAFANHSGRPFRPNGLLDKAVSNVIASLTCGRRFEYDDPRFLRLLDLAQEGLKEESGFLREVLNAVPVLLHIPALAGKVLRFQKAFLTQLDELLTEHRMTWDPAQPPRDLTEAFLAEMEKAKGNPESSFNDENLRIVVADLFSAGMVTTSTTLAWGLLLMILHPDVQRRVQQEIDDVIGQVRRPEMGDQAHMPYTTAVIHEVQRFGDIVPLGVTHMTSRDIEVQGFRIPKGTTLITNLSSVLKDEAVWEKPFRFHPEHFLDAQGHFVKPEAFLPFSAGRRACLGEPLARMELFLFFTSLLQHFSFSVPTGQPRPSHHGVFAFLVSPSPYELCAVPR
Protocol: The stability of fluoroperhexiline derivatives towards CYP2D6-mediated metabolism was measured by determination of the rate of compound disappearance when incubated in the presence CYP2D6 recombinant isoform expression systems (Bactosomes™). The percentage of parent compound remaining at each time point (following correction for any loss in the incubations with the control bactosomes) is calculated. cDNA expressed human CYP450 enzyme preparations co-expressed with human NADPH cytochrome P450 reductase (Bactosomes™) are supplied by Cypex Ltd. Bactosomes™ are stored at −80° C. prior to use. […] Incubations are also performed using control bactosomes (no P450 enzymes present) to reveal any non-enzymatic degradation. The final incubation volume is 25 μL. A compound known to be metabolised specifically by CYP2D6 isoform is used as a control compound. Each compound is incubated singly for 0, 5, 15, 30 and 45 min with each isoform. The reactions are stopped by the addition of 50 μL methanol containing internal standard at the appropriate time points. The incubation plates are centrifuged at 2500 rpm for 20 min at 4° C. to precipitate the protein. Following protein precipitation, the sample supernatants are combined in cassettes of up to four compounds and analysed using Cyprotex generic LC-MS/MS conditions. The natural logarithm of the peak area ratio (which has been corrected for any loss in the incubations with the control bactosomes) is plotted against time and the gradient of the line determined. Elimination Rate Constant (k)=(−Gradient).

[3] = recombinant CYP2D6 Bactosomes, 5 μM test compound

SMILES | microsomal CLint at 3 μM [1] [µL/min/mg] | half-life at 3 μM [1] [min] | half-life at 5 μM [2, 3] [min] | stability towards CYP2D6 compared with perhexiline (in words) [2] | T½ [2, 3] [min]
C1CCC(C(CC2CCCCN2)C2CCCCC2)CC1 (centres unmarked) [Perhexiline, 2-(2,2-dicyclohexylethyl)piperidine] | 65 | 21 | 14 |  | 
FC1CCC(C(CC2CCCCN2)C2CCCCC2)CC1 (mixture of isomers) [FPER-003, 2-(2-Cyclohexyl-2-(4-fluorocyclohexyl)ethyl)piperidine] | 129 | 11 | 16 | no increase in stability | 
FC1(F)CCC(C(CC2CCCCN2)C2CCCCC2)CC1 (mixture of isomers) [FPER-001, 2-(2-Cyclohexyl-2-(4,4-difluorocyclohexyl)ethyl)piperidine] | 19 | 72 |  | substantial increase in stability towards CYP2D6 | 104
